Measured values published in patent CN107475146A, “一种链霉菌及其代谢产物粉蝶霉素类化合物在抗肾癌中的应用” (priority 2017, dated 2017).

What was measured:
Format in all cases: cell-based
[1] = system: OS-RC-2 human renal cancer cell line [OS-RC-2人肾癌细胞株]; test: CCK-8 assay, inhibition of proliferation of OS-RC-2 human renal cancer cells; settings: for IC50: CCK-8, 72 h
[2] = system: 786-O human renal cancer cell line [786-O人肾癌细胞株]; test: CCK-8 assay, inhibition of proliferation of 786-O human renal cancer cells
[3] = system: 786-O and ACHN cells [786-O和ACHN细胞]; test: CCK-8 assay, 786-O and ACHN human renal cancer cells, result stated jointly for both lines
[4] = system: ACHN human renal cancer cell line [ACHN人肾癌细胞株]; test: CCK-8 assay, inhibition of proliferation of ACHN human renal cancer cells; settings: 72 h

Compound | IC50 [1] | IC50 ([2]; 72 h) | also measured
CC=C(C)C(O)C(C)C=C(C)C=CCC(C)=CCc1nc(OC)c(OC)c(O)c1C (centres unmarked) [化合物1, Piericidin A] | – | – | IC50 ([1]; Homo sapiens): 5.16 µM; IC50 ([2]; Homo sapiens, 786-0, 72 h): 29.9 µM; IC50 ([3]; Homo sapiens, joint range over compounds 1, 2, 4 and 5, CCK-8, 72 h): 0.4 to 72 µM; IC50 ([4]; Homo sapiens): 0.4 µM
IT-143-A [compound 4] | 20.5 µM | 61.1 µM | –
IT-143-B [化合物5] | 42.1 µM | 72 µM | –
Piericidin A2 [化合物2] | 16.4 µM | 50.3 µM | IC50 [4]: 14.2 µM
Piericidin C2 [化合物3] | 22.4 µM | > 100 µM | –
Piericidin s3a [化合物6] | 30.9 µM | > 100 µM | inhibitory activity ([1]; in words): 具有抑制活性; selectivity ([3]; in words): 具有一定的选择性
